The target in one data set is human PAI-1 (Homo sapiens, UniProt P05121). In words: Assay for Determining IC50 of Inhibition of PAI-1 (Antibody Assay). The format is biochemical. The settings on record: for pIC50: Antibody Assay (footnote a), active PAI-1 bound to tPA-coated plate, pH 7.5; for inhibition at 25 µM: 25 μM test compound, footnote a (Antibody Assay). On the procedure:
Assay for Determining IC50 of Inhibition of PAI-1
This assay is based upon the non-SDS dissociable interaction between tPA and active PAI-1. Assay plates are initially coated with human tPA (10 μg/ml). Test compounds are dissolved in DMSO at 10 mM, then diluted with physiologic buffer (pH 7.5) to a final concentration of 1-50 μM. Test compounds are incubated with human PAI-1 (50 ng/ml) for 15 minutes at room temperature. The tPA-coated plate is washed with a solution of 0.05% Tween 20 and 0.1% BSA, then the plate is blocked with a solution of 3% BSA. An aliquot of the test compound/PAI-1 solution is then added to the tPA-coated plate, incubated at room temperature for 1 hour, and washed. Active PAI-1 bound to the plate is assessed by adding an aliquot of a 1:1000 dilution of the 33B8 monoclonal antibody against human PAI-1, and incubating the plate at room temperature for 1 hour (Molecular Innovations, Royal Oak, Mich. The plate is again washed, and a solution of goat anti-mouse IgG-alkaline phosphatase conjugate is added at a 1:50,000 dilution in goat serum. The plate is incubated 30 minutes at room temperature, washed, and a solution of alkaline phosphatase substrate is added. The plate is incubated 45 minutes at room temperature, and color development is determined at OD405 nm. The quantitation of active PAI-1 bound to tPA at varying concentrations of test compound is used to determine the IC50. Results are analyzed using a logarithmic best-fit equation. The assay sensitivity is 5 ng/ml of human PAI-1 as determined from a standard curve ranging from 0-100 ng/ml.

For data set [1], the target named is T1, recombinant human plasminogen activator inhibitor-1 (PAI-1) (Homo sapiens, UniProt P05121).
T1 construct: purchased Molecular Innovations, Royal Oak, Mich
Put plainly: modification of the Primary Screen for PAI-1 Inhibition. The format is biochemical. The note with it: modification of the Primary Screen (footnote b); residual tPA activity, Spectrozyme-tPA. On the procedure: Primary Screen for the PAI-1 Inhibition
Test compounds are dissolved in DMSO at a final concentration of 10 mM, then diluted […] in physiologic buffer. The inhibitory assay is initiated by the addition of test compound (1-100 μM final concentration, maximum DMSO concentration of 0.2%) in a pH 6.6 buffer containing 140 nM recombinant human plasminogen activator inhibitor-1 (PAI-1; Molecular Innovations, Royal Oak, Mich. Following a 1 hour incubation at room temperature, 70 nM of recombinant human tissue plasminogen activator (tPA) is added, and the combination of test compound, PAI-1 and tPA is incubated for an additional 30 minutes. Following the second incubation, Spectrozyme-tPA (American Diagnostica, Greenwich, Conn.), a chromogenic substrate for tPA, is added and absorbance read at 405 nm at 0 and 60 minutes. Relative PAI-1 inhibition is equal to the residual tPA activity in the presence of test compound and PAI-1. Control treatments include the complete inhibition of tPA by PAI-1 at the molar ratio employed (2:1), and the absence of any effect of the test compound on tPA alone.

The structures appear in SMILES notation. pIC50: −log10 of the molar value.

Chain of human PAI-1 (P05121 24-402): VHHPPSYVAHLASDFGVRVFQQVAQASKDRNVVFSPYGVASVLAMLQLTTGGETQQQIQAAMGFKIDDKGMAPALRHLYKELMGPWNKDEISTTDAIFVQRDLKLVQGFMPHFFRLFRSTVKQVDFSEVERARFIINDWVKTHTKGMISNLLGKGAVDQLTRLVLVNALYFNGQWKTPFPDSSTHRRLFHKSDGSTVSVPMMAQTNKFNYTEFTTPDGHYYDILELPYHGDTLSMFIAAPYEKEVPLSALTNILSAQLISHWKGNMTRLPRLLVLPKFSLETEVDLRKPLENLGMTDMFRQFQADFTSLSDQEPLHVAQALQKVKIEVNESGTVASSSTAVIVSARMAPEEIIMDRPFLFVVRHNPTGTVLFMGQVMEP
T1 sequence (P05121 24-402): as above

As a reminder, the pIC50 is the negative decadic logarithm of the IC50, by convention in mol/L. Regarding `CCCCCc1c(-c2ccc3cc(OCc4nnn[nH]4)ccc3c2)n(Cc2ccccc2)c2ccccc12` [Example 1, 1-Benzyl-3-pentyl-2-[6-(1H-tetraazol-5-ylmethoxy)-2-naphthyl]-1H-indole], the pIC50 against human PAI-1 was 5.01. What is called melting point is the temperature, or range, at which the solid turns liquid. On to `CCCCCc1c(-c2ccc3c(Br)c(OCc4nnn[nH]4)ccc3c2)n(Cc2ccccc2)c2ccccc12` [Example 2, 1-Benzyl-2-[5-bromo-6-(1H-tetraazol-5-ylmethoxy)-2-naphthyl]-3-pentyl-1H-indole], for which the melting point was > 70 °C (dec.). Further, in data set [1], the negative logarithm of the IC50 (pIC50) was 5.06. Consider `CCCCCc1c(-c2ccc3cc(OCc4nnn[nH]4)ccc3c2)n(C)c2ccccc12` [Example 3, 1-Methyl-3-pentyl-2-[6-(1H-tetraazol-5-ylmethoxy)-2-naphthyl]-1H-indole], for which the melting point was in the range of 120 to 122 °C. The compound further had a pIC50 on human PAI-1 of 4.79. On to `CCCCCc1c(-c2ccc3c(Br)c(OCc4nnn[nH]4)ccc3c2)n(C)c2ccccc12` [Example 4, 2-[5-Bromo-6-(1H-tetraazol-5-ylmethoxy)-2-naphthyl]-1-methyl-3-pentyl-1H-indole], for which the melting point is > 125 °C (dec.). Moreover, the pIC50 in data set [1] was 4.76. For `CCCCCc1c(-c2ccc3cc(OCc4nnn[nH]4)ccc3c2)n(C(C)=O)c2ccccc12` [Example 5, 1-Acetyl-3-pentyl-2-[6-(1H-tetraazol-5-ylmethoxy)-2-naphthyl]-1H-indole], the melting point is > 95 °C (dec.). Further, the negative logarithm of the IC50 (pIC50) in data set [1] was 5.04. As usually defined, the inhibition is the percentage by which the read-out fell short of the control. Lower therefore signals little suppression. `CCCCCc1c(-c2ccc3c(Br)c(OCc4nnn[nH]4)ccc3c2)n(C(C)=O)c2ccccc12` [Example 6, 1-Acetyl-2-[5-bromo-6-(1H-tetraazol-5-ylmethoxy)-2-naphthyl]-3-pentyl-1H-indole]: the melting point was > 79 °C (dec.). Besides, the inhibition at 25 µM on human PAI-1 amounted to 16%.

For `CCCCCc1c(-c2ccc3cc(OCc4nnn[nH]4)ccc3c2)n(Cc2ccccc2C(F)(F)F)c2ccccc12` [Example 7, 3-Pentyl-2-[6-(1H-tetraazol-5-ylmethoxy)-2-naphthyl]-1-[2-(trifluoromethyl)benzyl]-1H-indole], the melting point was > 100 °C (dec.). On human PAI-1, the pIC50 is 5.28. As to `CCCCCc1c(-c2ccc3c(Br)c(OCc4nnn[nH]4)ccc3c2)n(Cc2ccccc2C(F)(F)F)c2ccccc12` [Example 8, 2-[5-Bromo-6-(1H-tetraazol-5-ylmethoxy)-2-naphthyl]-3-pentyl-1-[2-(trifluoromethyl)benzyl]-1H-indole], the melting point was > 85 °C (dec.). Moreover, testing at 25 µM against human PAI-1 gave an inhibition of 57%.

Turning to `CCCCCc1c(-c2ccc3cc(OCc4nnn[nH]4)ccc3c2)n(Cc2ccc(C(C)(C)C)cc2)c2ccccc12` [Example 9, 1-(4-tert-Butylbenzyl)-3-pentyl-2-[6-(1H-tetraazol-5-ylmethoxy)-2-naphthyl]-1H-indole], the melting point is > 95 °C (dec.). In addition, the pIC50 at human PAI-1 was 4.60. In the case of `CCCCCc1c(-c2ccc3c(Br)c(OCc4nnn[nH]4)ccc3c2)n(Cc2ccc(C(C)(C)C)cc2)c2ccccc12` [Example 10, 2-[5-Bromo-6-(1H-tetraazol-5-ylmethoxy)-2-naphthyl]-1-(4-tert-butylbenzyl)-3-pentyl-1H-indole], the melting point is > 90 °C (dec.). Further, on human PAI-1, the inhibition at 25 µM came to 60%. As for `CCCCCc1c(-c2ccc3c(Br)c(OCC(=O)O)ccc3c2)n(C)c2ccccc12` [Example 11, {[1-Bromo-6-(1-methyl-3-pentyl-1H-indol-2-yl)-2-naphthyl]oxy}acetic acid], the melting point was > 73 °C (dec.). Besides, the pIC50 against human PAI-1 was 4.97.

Values taken from US7629377B2, “Substituted naphthyl indole derivatives as inhibitors of plasminogen activator inhibitor type-1 (PAI-1)” (Wyeth, priority 2008, dated 2009).
